A short description of data set [1]: Cytotoxicity of test compound to Vero host cells (minimum toxic concentration). The following applies: monkey, MTC (minimum toxic concentration), footnote: lowest concentration giving 50% reduction in percent survival of viable host cells.
The subject of the next data set is vaccinia virus. Briefly: microbe, parasite or virus in culture. The conditions noted are these: for IC50: Orthopoxvirus vaccinia, Vero, read-out: ID50 (inhibitory dose 50; 50% reduction in virus replication), vaccinia virus in Vero cells, called MIC50; for TI (therapeutic index, MTC/ID50) / Virus Rating (VR): Vero cells; for TI (therapeutic index, MTC/ID50): TI>50 indicates a useful compound; for Virus Rating (VR): VR >=1.0 significant, 0.5-0.9 marginal, <0.5 inactive, repeat lines are repeat tests. It is filed as cell-based.

Each structure is given as a SMILES string. ≈ marks a conversion by molar mass, not a printed value. Where “and” joins values, the source holds several entries; their conditions need not be identical. Equal entries are not always repeated.

`Nc1ncnc2c1ncn2[C@@H]1O[C@H](CO)[C@@H](O)[C@@H]1O` [AraA, 9-β-D-arabinofuranosyladenine, reference compound] came in with an MCC in data set [1] of over 320 µg/mL. For the same molecule, in the data set on vaccinia virus, the IC50 stood at 2 µg/mL (≈ 7.48 µM); the “TI (therapeutic index, MTC/ID50)” value is recorded as 13.3; the “Virus Rating (VR)” value is given as 1.0.

For `Nc1c2ncn([C@@H]3O[C@H](CO)[C@@H](O)[C@H]3O)c2nc[n+]1[O-]` [Compound 1a, Adenosine-N^1 -oxide], in data set [1], the MCC was found to be 100 µg/mL. Further, in the data set with vaccinia virus, the IC50 was 0.32 µg/mL (≈ 1.13 µM); the “TI (therapeutic index, MTC/ID50)” value came to 312; the “Virus Rating (VR)” value is recorded as over 2.4.

`Nc1c2ncn([C@H]3C[C@H](O)[C@@H](CO)O3)c2nc[n+]1[O-]` [Compound 1b, 2'-Deoxyadenosine-N^1-oxide] returned an MCC in data set [1] of over 320 µg/mL. Further, in the data set with vaccinia virus, the IC50 is 3.06 µg/mL (≈ 11.5 µM); the “TI (therapeutic index, MTC/ID50)” value is recorded as 104; the “Virus Rating (VR)” value is on record as over 1.7.

Regarding `CNc1c2ncn([C@@H]3O[C@H](CO)[C@@H](O)[C@H]3O)c2nc[n+]1[O-]` [Compound 1c, 6-Methylamino-9-β-D-ribofuranosylpurine-N^1-oxide], the MCC in data set [1] worked out at 320 µg/mL. For the same molecule, in the data set on vaccinia virus, the IC50 was found to be 0.45 µg/mL (≈ 1.51 µM); the “TI (therapeutic index, MTC/ID50)” value worked out at 708; the “Virus Rating (VR)” value is over 2.4.

As for `Cc1cccc(COn2cnc3c(ncn3[C@@H]3O[C@H](CO)[C@@H](O)[C@H]3O)c2=N)c1.[O-][Cl+3]([O-])([O-])O` [Compound 2a, 1-(3-Methylbenzyloxy)adenosine, perchloric acid salt], the MCC in data set [1] was over 320 µg/mL. In the data set on vaccinia virus, the IC50 was 0.41 µg/mL; the “TI (therapeutic index, MTC/ID50)” value was 781 and 487; the “Virus Rating (VR)” value is over 2.4.

For the molecule `Cc1cc(C)cc(COn2cnc3c(ncn3[C@@H]3O[C@H](CO)[C@@H](O)[C@H]3O)c2=N)c1.[O-][Cl+3]([O-])([O-])O` [Compound 2aa, 1-(3,5-Dimethylbenzyloxy)adenosine, perchloric acid salt], the MCC in data set [1] was 320 µg/mL. Further, in the data set on vaccinia virus, the IC50 amounted to 0.45 µg/mL; the “TI (therapeutic index, MTC/ID50)” value is 710 and > 1000.

As for `Cc1ccc(COn2cnc3c(ncn3[C@@H]3O[C@H](CO)[C@@H](O)[C@H]3O)c2=N)cc1.[O-][Cl+3]([O-])([O-])O` [Compound 2b, 1-(4-Methylbenzyloxy)adenosine, perchloric acid salt], in data set [1], the MCC amounted to 100 µg/mL. In the data set on vaccinia virus, the IC50 is 0.11 µg/mL; the “TI (therapeutic index, MTC/ID50)” value came out at 917; the “Virus Rating (VR)” value is recorded as 2.4.

Consider `Cc1ccc(C)c(COn2cnc3c(ncn3[C@@H]3O[C@H](CO)[C@@H](O)[C@H]3O)c2=N)c1.[O-][Cl+3]([O-])([O-])O` [Compound 2bb, 1-(2,5-Dimethylbenzyloxy)adenosine, perchloric acid salt], for which the MCC in data set [1] was determined as 320 µg/mL. In the data set on vaccinia virus, the IC50 turned out to be 0.38 µg/mL; the “TI (therapeutic index, MTC/ID50)” value is > 850 and > 1350.

Take `Cc1ccccc1COn1cnc2c(ncn2[C@@H]2O[C@H](CO)[C@@H](O)[C@H]2O)c1=N.[O-][Cl+3]([O-])([O-])O` [Compound 2c, 1-(2-Methylbenzyloxy)adenosine, perchloric acid salt]: the MCC in data set [1] was over 320 µg/mL. In addition, in the data set on vaccinia virus, the IC50 was 0.32 µg/mL; the “TI (therapeutic index, MTC/ID50)” value worked out at 1000; the “Virus Rating (VR)” value is listed as over 2.4.

For the molecule `COc1ccc(COn2cnc3c(ncn3[C@@H]3O[C@H](CO)[C@@H](O)[C@H]3O)c2=N)cc1.[O-][Cl+3]([O-])([O-])O` [Compound 2d, 1-(4-Methoxybenzyloxy)adenosine, perchloric acid salt], in the data set with vaccinia virus, the IC50 came out at 0.01 µg/mL.

On to `CC(On1cnc2c(ncn2[C@@H]2O[C@H](CO)[C@@H](O)[C@H]2O)c1=N)c1ccccc1.[O-][Cl+3]([O-])([O-])O` (stereo partly shown) [Compound 2f, 1-(1-Phenylethyloxy)adenosine, perchloric acid salt], for which, in the data set on vaccinia virus, the IC50 was under 0.32 µg/mL.

With `N#Cc1ccccc1COn1cnc2c(ncn2[C@@H]2O[C@H](CO)[C@@H](O)[C@H]2O)c1=N.[O-][Cl+3]([O-])([O-])O` [Compound 2w, 1-(2-Cyanobenzyloxy)adenosine, perchloric acid salt], the MCC in data set [1] was over 320 µg/mL.

The values are drawn from US5102873A (priority 1989, dated 1992).
